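Compound exposure: 48 hours, 5 concentrations, 96-well plates. GI50 marks 50% less growth. At the TGI there is no net growth.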
How the values were obtained:
Test in all cases: NCI-60 cell line screen, 48 h
DMS 114 small cell lung = system: DMS 114 small cell lung
DLD-1 colon = system: DLD-1 colon
RXF-631 renal = system: RXF-631 renal
LOX IMVI melanoma = system: LOX IMVI melanoma
LXFL 529 NSCLC = system: LXFL 529 NSCLC
ACHN renal = system: ACHN renal
M19-MEL melanoma = system: M19-MEL melanoma
XF 498 CNS = system: XF 498 CNS
SNB-78 CNS = system: SNB-78 CNS
KM20L2 colon = system: KM20L2 colon
HCT-15 colon = system: HCT-15 colon
OVCAR-3 ovarian = system: OVCAR-3 ovarian
HOP-18 NSCLC = system: HOP-18 NSCLC
SK-MEL-2 melanoma = system: SK-MEL-2 melanoma
DMS 273 small cell lung = system: DMS 273 small cell lung
NCI/ADR-RES ovarian = system: NCI/ADR-RES ovarian

| SMILES | TGI (DMS 114 small cell lung) | TGI (DLD-1 colon) | TGI (RXF-631 renal) | TGI (LOX IMVI melanoma) | TGI (LXFL 529 NSCLC) | TGI (ACHN renal) | TGI (M19-MEL melanoma) | TGI (XF 498 CNS) | TGI (SNB-78 CNS) | TGI (KM20L2 colon) | TGI (HCT-15 colon) | TGI (OVCAR-3 ovarian) | TGI (HOP-18 NSCLC) | TGI (SK-MEL-2 melanoma) | TGI (DMS 273 small cell lung) | GI50 (OVCAR-3 ovarian) | TGI (NCI/ADR-RES ovarian) |
| --- | --- | --- | --- | --- | --- | --- | --- | --- | --- | --- | --- | --- | --- | --- | --- | --- | --- |
| CC(=O)N(O)Cc1ccccc1 | > 100 µM | > 100 µM | > 100 µM | > 100 µM | > 100 µM | > 100 µM | > 100 µM | > 100 µM | > 100 µM | > 100 µM | > 100 µM | > 100 µM | – | – | – | – | – |
| C#CC1(O)CCC2[C@@H]3CCc4cc(Oc5nc(F)nc(-c6c7ccccc7cn6C)n5)ccc4C3CC[C@@]21C (stereo not given in full) | > 53.2 µM | > 73.5 µM | – | > 100 µM | > 100 µM | > 100 µM | > 100 µM | > 100 µM | > 100 µM | > 100 µM | > 100 µM | > 100 µM | > 100 µM | > 100 µM | > 100 µM | – | – |
| OC12c3ccccc3C3CCC4(OCCO4)C3C1c1ccccc12 (stereo not given) | > 100 µM | > 100 µM | – | > 100 µM | > 100 µM | > 100 µM | > 100 µM | – | > 100 µM | > 100 µM | > 100 µM | > 100 µM | > 100 µM | > 100 µM | > 100 µM | – | – |
| CCOC(=O)C1([Se]c2ccccc2)CCCC1=O (stereo not given) | 15.3 µM | 32.9 µM | > 100 µM | 26.7 µM | 34.2 µM | 43.2 µM | 51.1 µM | 36.9 µM | 54.9 µM | > 100 µM | 25.9 µM | 98 µM | 59.7 µM | > 100 µM | 28.5 µM | – | – |
| COc1ccc2c(c1)c(=O)c1c(NCCN(C)C)ccc3nnn2c31 | 19.4 µM | 20 µM | 14 µM | 2.9 µM | 18 µM | 14.6 µM | 20.8 µM | – | 21.8 µM | 14.7 µM | 16 µM | 19.6 µM | 7.35 µM | 19.7 µM | – | – | – |
| CCCN(CCC)c1c([N+](=O)[O-])cc(C(=O)N(CCO)CCO)cc1[N+](=O)[O-] | – | > 100 µM | – | – | > 100 µM | > 100 µM | > 100 µM | > 100 µM | > 100 µM | – | > 100 µM | > 100 µM | > 100 µM | > 100 µM | > 100 µM | – | – |
| O=C(OC/C=C1C=C(OC(=O)c2ccccc2)/C(=N/N(C(=O)c2ccccc2)c2ccccc2)O\1)c1ccccc1 | 28.3 µM | 10.6 µM | – | 14.1 µM | 4.4 µM | 22.5 µM | 18.8 µM | 33.7 µM | 67.1 µM | – | 19.7 µM | 21.5 µM | – | 27 µM | 24.1 µM | 8.35 µM | – |
| O=c1[nH]c(=O)n(C2OC(CO)C(O)C2O)cc1OCC(F)(F)F (stereo not given) | > 100 µM | > 100 µM | – | > 100 µM | > 100 µM | > 100 µM | > 100 µM | > 100 µM | > 100 µM | > 100 µM | > 100 µM | > 100 µM | > 100 µM | > 100 µM | > 100 µM | – | – |
| CCn1c2c(c3ccccc31)C(c1ccccc1)CC1C(=O)N(c3ccccc3)C(=O)C21 (stereo not given) | > 100 µM | > 100 µM | – | > 100 µM | > 100 µM | > 100 µM | > 100 µM | 37.2 µM | > 100 µM | > 100 µM | > 100 µM | > 100 µM | – | > 100 µM | > 100 µM | – | – |
| COc1ccc2[nH]c3c(C)cc([N+](=O)[O-])c(C)c3c2c1 | 58.3 µM | 72.7 µM | – | – | > 100 µM | 63.1 µM | 45.1 µM | > 100 µM | – | > 100 µM | > 100 µM | > 100 µM | > 100 µM | 46 µM | 45.4 µM | – | – |
| CC(CN(C)C)C(=O)c1ccccc1 (stereo not given) | > 57.8 µM | 32.6 µM | > 100 µM | 31.7 µM | 39.8 µM | > 56.5 µM | 35.4 µM | 45 µM | > 64 µM | > 87.5 µM | 33.4 µM | 97.8 µM | > 100 µM | 66.8 µM | > 100 µM | – | – |
| CC1(C)CC(=O)c2c(nc3c(ccc4ccccc43)c2-c2ccc(NC(=O)CCCCC(=O)Nc3ccc(-c4c5c(nc6c4ccc4ccccc46)CC(C)(C)CC5=O)cc3)cc2)C1 | – | – | – | 33.3 µM | – | 69.1 µM | – | – | – | – | 50.9 µM | 80.8 µM | – | 92.6 µM | – | – | 77.6 µM |
| CC[P+]1(c2ccccc2)[C@@H](C)CC[C@@H]1C | – | – | – | > 100 µM | – | > 100 µM | – | – | – | – | > 100 µM | > 100 µM | – | > 100 µM | – | – | > 100 µM |
| Cc1ccc2oc3c(c(Br)c(Br)n3C)c(=O)c2c1 | – | – | – | > 100 µM | – | 32.1 µM | – | – | – | – | > 100 µM | 46.8 µM | – | 89 µM | – | – | 52.5 µM |
| NC(Cc1ncccn1)C(=O)O (stereo not given) | – | – | – | > 100 µM | – | > 100 µM | – | – | – | – | > 100 µM | > 100 µM | – | > 100 µM | – | – | > 100 µM |
| O=c1[nH]c(=O)n(C2CC(O)C(CO)O2)cc1C#Cc1ccc(F)cc1 (stereo not given) | > 100 µM | > 100 µM | – | > 100 µM | > 100 µM | > 100 µM | > 100 µM | > 100 µM | > 100 µM | > 100 µM | > 100 µM | > 100 µM | > 100 µM | > 100 µM | > 100 µM | – | – |
| O=[N+]([O-])/C(C(Cl)=C(Cl)Cl)=C(\N1CCCCC1)n1nnc2ccccc21 | – | – | – | 31.7 µM | – | 42.3 µM | – | – | – | – | 39.1 µM | 32.6 µM | – | 37.7 µM | – | – | > 81.1 µM |
| CCCN1C(=O)/C(=C\c2ccc(OC)c(OC)c2)SC1=Nc1ccccc1 | – | – | – | > 100 µM | – | > 100 µM | – | – | – | – | > 100 µM | > 100 µM | – | > 100 µM | – | – | > 100 µM |

Reference: PubChem BioAssay (NCI)
